Test results published in US20090176817A1, “Method of Treatment of Diarrhea-Predominant Irritable Bowel Syndrome in a Subject” (priority 2005, published 2009).
Where two headings read alike, the source gives them in different places. Marks after values point to notes of the source that are not given here.

Assays:
[1] = test system: healthy, elderly subjects; experiment: Study K.241.5014: gastric emptying time, elderly, 8 mg TID; assay type: in vivo, human; settings: 8 mg TID oral 14 days, mean (SD)
Description: (§1) The effect of cilansetron on gastric emptying time and colonic transit time has been studied in 1 clinical study in healthy young subjects and 2 studies in elderly subjects. For measurement of gastric emptying time, breath samples for the determination of the ^12C/^13C ratio were taken on the last day of each treatment period immediately after ingestion of a ^13C labeled meal. The patients' breath was collected in separate 15-minute intervals, for four hours in total. ^13CO2 measurements were performed with an isotope ratio mass spectrometer. The half-life (TK) and lag-time (Tlag), which describe the duration of gastric emptying, were used as the primary parameters to evaluate gastric emptying time. In all 3 studies, colonic transit time was measured by administration of radio-opaque markers for the last six days of each treatment period, followed by a single abdominal X-ray image at 24 hours after ingestion of the last set of markers. The numbers of markers within the colon were used to calculate segmental (right colon, left colon, and rectosigmoid) and total colonic transit time.
Studies K.241.5013 and K.241.5014 were randomized, double-blind, placebo-controlled, 2-way crossover studies in 8 healthy male and female elderly subjects, each (ITT population, aged 64-83 years in K.241.5013 and 66-84 years in K.241.5014). […]

[2] = test system: healthy subjects; settings: in vivo
Description: (§2) In a randomized, double-blind, placebo-controlled, 2-way crossover study in 9 male and 9 female healthy subjects (ITT population, aged 21-39 years), subjects were randomized to receive 2 treatments (cilansetron 16 mg tablet and placebo) during the 2 treatment periods. During each treatment period, subjects received a single dose of their assigned treatment on the first day (Day 1), after which they received the same treatment TID for 4 days (Days 2-5). There was a 10-day washout period between treatment periods. Subjects were fasted for at least 2 hours before and following each dose, and heavy physical activity was restricted. Serial 12-lead ECGs was recorded up to 24 hours following dosing on Day 1 (single dose) and on the last day (Day 5) of each treatment period. Heart rate and ECG intervals (RR, PR, QRS, and QT) were measured electronically, but were manually verified and corrected if needed by the investigator. QT intervals were corrected (QTc) electronically for heart rate using the Bazett's correction. Mean and maximum QTc intervals were calculated over different time intervals postdose and were compared between treatments using an ANOVA accounting for sequence, gender, subject within sequence and gender, period, and treatment effects.

[3] = test system: CYP2C19; settings: hepatocytes
[4] = test system: healthy subjects; experiment: Study K.241.5012: gastric emptying time, healthy young subjects; assay type: in vivo, human; settings: mean (SD), not significant vs placebo
Description: as §1
Study K.241.5013 was a randomized, double-blind, placebo-controlled, 3-way crossover study in 12 healthy male subjects (ITT population), aged 20-27 years. Subjects received cilansetron 4 mg, cilansetron 8 mg, or placebo orally TID for 14 days during each of the treatment periods, with a 14-day washout between periods. The primary efficacy parameter was the total mean colonic transit time during each treatment and the secondary parameters were the segmental colonic transit times and the gastric emptying measurements. A one-sided Dunnett t-test procedure was used to compare efficacy parameters between the cilansetron and placebo treatments.

[5] = clinical; settings: both, human, in vivo, po, 16 mg
Description: as §2

[6] = test system: CYP3A4; settings: hepatocytes
[7] = test system: diarrhea-predominant IBS subjects; assay type: in vivo, human; settings: for Percentage of Subjects Who Worsened from Baseline: Daily Abdominal Pain / Percentage of Subjects Who Worsened from Baseline: Daily Urgency: S241.3.006, observed value
Description: Studies S24 1.3.OO6, S24 1.3.0 1 1, and S24 1.3.009 used the following efficacy measurements: • The subjects answered the following three questions with “yes” or “no” using a phone diary at the end of each week: • a) During the last week, did you experience adequate relief of your IBS symptoms, such as abdominal pain, abdominal discomfort, abnormal bowel habits? • b) During the last week, did you experience adequate relief of your abdominal pain and/or discomfort? • c) During the last week, did you experience adequate relief of your abnormal bowel habits? • The subjects rated the following symptoms using the phone diary at the end of each day: • abdominal pain/discomfort (five-point scale); • stool consistency (seven-point Bristol Stool Scale); • stool frequency (number of bowel movements each day); • urgency (five-point scale); • straining (yes or no); • feeling of incomplete defecation (yes or no); • bloating or feeling of abdominal distension (five-point scale). • In Studies S241 A006 and S241.3.009, subjects completed the IBS-QOL Survey at Baseline (Day 1) and at the end of treatment. In Study S24 1.3.0 1 1, subjects completed the IBS-QOL Survey at Baseline (Day 1), at the end of the three-month treatment period, and at the end of rerandomized treatment.
Other secondary efficacy parameters for all three studies included: • Responder rate for the weekly diary questions on adequate relief at each month, where a responder for a month (monthly responder) was defined as a subject who answered the weekly question with “yes” at least twice for that month. The responder rate was the percentage of responders within a treatment group. The all-month responder rate for the weekly diary questions on adequate relief was also evaluated, where an all-month responder was defined as a subject who answered the weekly question with “yes” at least twice for each month. The all-month responder rate was the percentage of all-month responders within a treatment group; • Adequate relief rate for the weekly diary questions was calculated for each subject as the number of weekly assessments with adequate relief (“yes”) divided by the total number of weekly assessments; • Percentage of subjects with adequate relief for the weekly diary questions at each week; • Daily diary questions regarding abdominal pain/discomfort (five-point scale), stool consistency (seven-point scale), stool frequency (number of bowel movements each day), straining (yes or no), urgency (five-point scale), feeling of incomplete evacuation (yes or no), and bloating or feeling of abdominal distention (five-point scale); • QOL data assessed by the IBS-QOL questionnaire; and • Question to determine the interruption of activities.
The deterioration of effect analyses focus is to evaluate the percentage of subjects who worsened from Baseline. Clinical limits were set in order to capture a clinically meaningful number of subjects who worsened from Baseline. This clinical limit was also used in identifying those who improved from Baseline which led to a much larger percentage of subjects meeting this criterion. Percentages of subjects who improved from Baseline for these analyses are discussed in order to understand the context of the percentage of subjects who worsened.

Cc1nccn1C[C@H]1CCc2c(c3cccc4c3n2CCC4)C1=O [Cilansetron, (R)-(−)-4,5,6,8,9,10-hexahydro-10-[(2-methyl-1H-imidazol-1-yl)methyl]-11H-pyrido-[3,2,1-jk]-carbazol-11-one]
gastric emptying time T½ [1]: 166 (18) min | gastric emptying time Tlag ([1]; significant vs placebo (p < 0.05)): 114 (18)* min | Effect on mean or maximum QTc interval (Bazett's correction) [2]: no effect | Increase of CYP2C19 [3]: about half of that caused by phenobarbital | gastric emptying time Tlag ([4]; 4 mg TID oral 14 days): 1.70 (0.22) hours | gastric emptying time T½ ([4]; 4 mg TID oral 14 days): 2.46 (0.35) hours | gastric emptying time Tlag ([4]; 8 mg TID oral 14 days): 1.63 (0.30) hours | gastric emptying time T½ ([4]; 8 mg TID oral 14 days): 2.38 (0.42) hours | Tmax [5]: 3 h | CYP3A4 mRNA induction [6]: did not induce | Mean number of stools per day at end of treatment ([7]; 2 mg TID): 2.45 stools per day | Percentage of Subjects Who Worsened from Baseline: Daily Abdominal Pain ([7]; Weeks 1-2, 2 mg TID): 13% | Percentage of Subjects Who Worsened from Baseline: Daily Urgency ([7]; Weeks 1-2, 2 mg TID): 5% | Percentage of Subjects Who Worsened from Baseline: Daily Abdominal Pain ([7]; Weeks 3-4, 2 mg TID): 8% | Percentage of Subjects Who Worsened from Baseline: Daily Urgency ([7]; Weeks 3-4, 2 mg TID): 5% | Percentage of Subjects Who Worsened from Baseline: Daily Abdominal Pain ([7]; Weeks 5-6, 2 mg TID): 9% | Percentage of Subjects Who Worsened from Baseline: Daily Urgency ([7]; Weeks 5-6, 2 mg TID): 8% | Percentage of Subjects Who Worsened from Baseline: Daily Abdominal Pain ([7]; Weeks 7-8, 2 mg TID): 7% | Percentage of Subjects Who Worsened from Baseline: Daily Urgency ([7]; Weeks 7-8, 2 mg TID): 5% | Percentage of Subjects Who Worsened from Baseline: Daily Abdominal Pain ([7]; Weeks 9-10, 2 mg TID): 8% | Percentage of Subjects Who Worsened from Baseline: Daily Urgency ([7]; Weeks 9-10, 2 mg TID): 8% | Percentage of Subjects Who Worsened from Baseline: Daily Abdominal Pain ([7]; Weeks 11-12, 2 mg TID): 8% | Percentage of Subjects Who Worsened from Baseline: Daily Urgency ([7]; Weeks 11-12, 2 mg TID): 8% | Subjects worsened from Baseline, daily abdominal pain ([7]; Weeks 1-2): 13% | Subjects worsened from Baseline, daily urgency ([7]; Weeks 1-2): 5% | Median rate of urgency-free days ([7]; end of treatment): 0.27 | Bloating or abdominal distention score, change from Baseline at end of treatment ([7]; in vivo): −0.48 | Daily abdominal pain/discomfort score, change from Baseline at end of treatment ([7]; in vivo): −0.69 | Daily stool consistency score, change from Baseline at end of treatment ([7]; in vivo): −1.22 | Daily urgency score, change from Baseline at end of treatment ([7]; in vivo): −0.87 | Feeling of incomplete evacuation, change from Baseline at end of treatment ([7]; in vivo): −0.18 | Mean stool consistency score at end of treatment ([7]; in vivo): 4.10 | Mean straining, change from Baseline at end of treatment ([7]; in vivo): 0.09 | Stools per day, change from Baseline at end of treatment ([7]; in vivo): −0.98 | Median rate of pain-free days ([7]; three-month period): 0.19 | Median rate of urgency-free days ([7]; three-month period): 0.32
